Test results published in patent US20060233861A1, “Modulation of atp production or content in the hypothalamus” (priority 2003, published 2006).

Legend:
rats (food intake) [1] = assay: Effect of ICV or i.p. administration of test compounds on rat food intake
[2] = test system: ATP-sensitive K+ channels; assay: Electrophysiological recordings in hypothalamic slices (glucose sensitive neurons); type: cell-based; settings: hypothalamic slice recordings
rats (food intake) [3] = settings: ICV, depending on dose
Na/K ATPase [4] = assay: 86-Rubidium uptake into incubated rat hypothalamic slice punches; type: cell-based; settings: for effect of agent alone on 86Rb uptake: Compound (1) at up to 5000 nM
Procedure: The whole brain was removed from the skull and inserted into a Precision Brain Slicer (RMB 3000C, Braintree Scientific INC.). As scaled from the rear, a brain slice was removed between the 8 and 10 scale (about 2 mm). The medial-basal hypothalamus was punched using a round mouth #18 1 mm diameter needle with attached syringe. The tissue included most of arcuate nucleus of the hypothalamus and a small part of nucleus paremamillaris ventralis. The tissue was pushed into 0.5 ml DMEM medium in a 24 well cell culture plate. Following preincubation at 37° C., in air/5% CO2 for 30 min., concentrations of test Compound were added for an additional 30 min. Finally, 86-rubidium- (^86Rb) 1 μCi was added to each well for 20 minutes at room temperature. The tissue was then transferred to tubes with a protein dialysis solution to dissolve protein. Five (5) ml scintillation liquid was added to each tube and the photoemissions determined in a β-counter (Beckman).

[5] = test system: hypothalamus (ATP content); settings: rats treated with supraphysiological doses of triiodothyronine (T3), ICV; cited from earlier work
Na/K ATPase [6] = assay: 86-Rubidium uptake in cultures of fetal rat hypothalamic neurons; type: cell-based; settings: for effect on ouabain inhibition of 86-Rb uptake: preincubated 10 min, then ouabain 1000 nM
Na/K ATPase [7] = assay: Competitive binding / Na/K ATPase activity in membrane concentrates from brain, kidney and gut; type: biochemical
ouabain receptors = assay: 3H-ouabain binding in cultured fetal rat hypothalamic neurons (whole cell); settings: whole cell hypothalamic culture
Source text: This binding was unaffected and in some experiments appeared to actually increase during exposure to Compound (1). Compound (2) was not tested.

[8] = test system: hypothalamus (ATP content); assay: ATP content in hypothalamic slice punches after ICV injection in rats; type: in vivo, rat; settings: rats on normal (ad lib) diet, ICV 40 nmoles, punches 24 hours later, P<0.05
Procedure: In several experiments, to determine subsequent effects on food intake, hypothalamic Na/K ATPase activity or ATP content, the animals were administered the test compounds by ICV injection. Animals were anesthetized with sodium barbiturate (6 mg/100 g BW). Under stereotaxic fixation (David Kopf), with aseptic technique, a 25 ul Hamilton micro syringe (Reno, Nev.) needle tip was inserted according to the published references: 2 mm lateral to the middline at the bregma; −4.3 mm to the bregma; 5.5 mm deep to the dura; −1.3 mm with the shaft inclined medially at 13° […]. to the vertical. […] All injections were calculated and expressed in absolute amount, i.e. nmoles. […]
Following extraction, the content of ATP in these slice punches was measured by the Enliten™ ATP Assay system (see below). […]
As described above, hypothalamic tissues after removal or removal/incubation were transferred to 1.5 ml Eppendorf tubes with 50 μl TCA (5%) and immediately homogenated with a plastic homogenizer. […] ATP was measured according to the kit protocol. […] Light photons were measured by a luminometer and were compared with an ATP standard curve to calculate ATP concentration. […] ATP content is expressed as moles per mg protein for tissue samples, moles per 5 mg tissue for section punches, and as moles per neuron culture well; expressed in appropriate quantitative units for each experiment. […]

[9] = test system: fetal rat hypothalamic neurons; assay: ATP content in cultured fetal hypothalamic neurons (Enliten ATP Assay); type: cell-based; settings: for increase of ATP content: 30 minute incubation in vitro

| SMILES | effect on food intake after i.p. injection (rats (food intake) [1]; 20 nmoles administered once i.p. (data not shown)) | effect on food intake at lowest dose (rats (food intake) [1]; ICV, 0.04 nmoles) | effect on ATP-sensitive K+ channels [2] | duration of effect on food intake (rats (food intake) [3]) [h] | effect of agent alone on 86Rb uptake (Na/K ATPase [4]) | effect on the inhibitory effect of ouabain on 86Rb uptake (Na/K ATPase [4]; with ouabain) | effect on apparent hypothalamic ATP deficit [5] | effect of agent alone on 86-Rb uptake (Na/K ATPase [6]; hypothalamic neuron culture) | concentrations at which reduction of ouabain inhibition of 86-Rb uptake was observed (Na/K ATPase [6]; hypothalamic neuron culture, ouabain 1000 nM) [nM] | effect on ouabain inhibition of 86-Rb uptake (Na/K ATPase [6]; hypothalamic neuron culture) | binding to / inhibition of activity of membrane extracts enriched with Na/K ATPase (Na/K ATPase [7]) | effect on tritiated (3H) ouabain binding (ouabain receptors) | effect on hypothalamic ATP content [8] | increase of ATP content ([9]; 500 nM alone) | increase of ATP content ([9]; 500 nM in combination with ouabain) | effect on subsequent 24 hour food intake (rats (food intake) [1]; ICV, approximately 40 nmoles in DMSO) | behavioural effect observed (rats (food intake) [1]; ICV, approximately 8 nmoles in 4 μl DMSO) | effect on food intake (rats (food intake) [1]; ICV, approximately 8 nmoles in 4 μl DMSO (results not shown)) | IC50 (Na/K ATPase [6]; fetal rat hypothalamic neuron culture, 10 to 100,000 nM tested, approximate, read-out: IC50 for 86Rb uptake) [nM] | effect on ATP content ([9]; hypothalamic culture, ouabain alone) |
| --- | --- | --- | --- | --- | --- | --- | --- | --- | --- | --- | --- | --- | --- | --- | --- | --- | --- | --- | --- | --- |
| C/C=C(\C)C(=O)O[C@@H]1CC2C(CC=C3C[C@@H](OC4CC(OC)C(OC5CC(OC)C(OC6OC(C)C(O)C(OC)C6O)C(C)O5)C(C)O4)CC[C@@]32C)[C@@]2(O)CC[C@H](C(C)=O)[C@@]12C (stereo partly drawn) [Compound (1), tri-rhabinoside, 14-0H, 12-tigloyl pregnane steroidal glycoside] | did not significantly reduce food intake | significant but relatively minor effect | activate (close) | 24 to 48 | had no effect | almost completely blocked | partially reversed | had no effect | 5 to 500 | significantly reduced the inhibition | does not bind to or inhibit activity | unaffected | increased hypothalamic ATP content | up to 2 fold | up to 2 fold | – | – | – | – | – |
| C/C=C(\C)C(=O)O[C@@H]1CC2C(CC=C3C[C@@H](O)CC[C@@]32C)[C@@]2(O)CC[C@H](C(C)=O)[C@@]12C (stereo partly drawn) [Compound (2)] | – | – | – | – | – | – | – | – | – | had no effect | – | – | – | – | – | altered subsequent 24 hour food intake | – | – | – | – |
| C[C@@H]1O[C@@H](O[C@H]2C[C@@H](O)[C@]3(CO)[C@H]4[C@H](O)C[C@]5(C)[C@@H](C6=CC(=O)OC6)CC[C@]5(O)[C@@H]4CC[C@]3(O)C2)[C@H](O)[C@H](O)[C@H]1O [Ouabain, ouabain, reference compound] | – | – | – | – | inhibited | – | – | […] | – | – | – | specifically inhibited | – | – | – | – | motor hyperactivity | no consistent effect on food intake | […] | had no effect or slightly reduced ATP content |
